Data from paper PMC10584882 (Communications Biology, 2023).
Several values for one entry are separate records, joined by “and”; a condition that tells them apart may be missing. Equal values may be shown once.

What was measured:
human CatK = molecular target: T1, human CatK (Homo sapiens, UniProt P43235); assay: Cathepsin inhibition test, CatK; format: biochemical
T1 construct: made in house
T1 sequence (P43235 115-329): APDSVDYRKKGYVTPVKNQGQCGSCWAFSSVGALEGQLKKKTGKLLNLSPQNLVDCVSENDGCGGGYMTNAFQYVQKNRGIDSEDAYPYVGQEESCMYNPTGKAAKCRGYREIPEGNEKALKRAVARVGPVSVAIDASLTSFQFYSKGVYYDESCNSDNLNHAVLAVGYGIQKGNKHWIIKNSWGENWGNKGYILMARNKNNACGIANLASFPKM

human CatV = molecular target: T2, human CatV (Homo sapiens, UniProt O60911); assay: Cathepsin inhibition test, CatV; format: biochemical; conditions: Fig. S3 panel c, single replicates
T2 construct: made in house
T2 sequence (O60911 114-334): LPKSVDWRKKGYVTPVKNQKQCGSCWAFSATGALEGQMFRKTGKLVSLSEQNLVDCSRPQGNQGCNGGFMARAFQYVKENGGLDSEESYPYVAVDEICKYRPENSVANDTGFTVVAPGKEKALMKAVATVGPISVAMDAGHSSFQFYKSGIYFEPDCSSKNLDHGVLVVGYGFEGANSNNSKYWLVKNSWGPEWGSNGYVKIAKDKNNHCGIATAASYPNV

SARS-CoV-2-GFP = assay: microbe, parasite or virus in culture; format: cell-based; conditions: Severe acute respiratory syndrome coronavirus 2, Vero C1008, mean with standard error, read-out: VERO E6 EC50
SARS-CoV-2 [1] = assay: Viral loading determination via RT-qPCR in VERO-CCL81 cells; format: cell-based; conditions: for Viral titer (% control): VERO CCL81, RT-qPCR, experiments 1 and 2
SARS-CoV-2 [2] = assay: Viral loading determination via RT-qPCR in LC-HK2 cells; format: cell-based; conditions: LC-HK2, RT-qPCR

CCCC[C@@H](C=O)NC(=O)[C@H](CC(C)C)NC(=O)OCc1ccccc1 [Calpeptin, reference compound]
Residual activity (Vi/V0) (human CatK; Fig. S3 panel a, inhibitor 0.010 nM, single replicates, 10 pM): 0.8228 and 0.7849 and 0.8924
remaining activity at 10 pM (human CatK; Fig. S3 panel a, inhibitor 0.010 nM, single replicates, read-out: Residual activity (Vi/V0)): 79.2%
Residual activity (Vi/V0) (human CatK; Fig. S3 panel a, inhibitor 0.018 nM, single replicates, 18 pM): 0.692 and 0.7935 and 0.8793 and 0.9792
Residual activity (Vi/V0) (human CatK; Fig. S3 panel a, inhibitor 0.032 nM, single replicates, 32 pM): 0.6266 and 0.7672 and 0.8012 and 0.8701
Residual activity (Vi/V0) (human CatK; Fig. S3 panel a, inhibitor 0.058 nM, single replicates, 58 pM): 0.6214 and 0.5994 and 0.7911 and 0.9302
Residual activity (Vi/V0) (human CatK; Fig. S3 panel a, inhibitor 0.105 nM, single replicates, 0.000105 µM): 0.4801 and 0.5677 and 0.7764
Residual activity (Vi/V0) (human CatK; Fig. S3 panel a, inhibitor 0.189 nM, single replicates, 0.000189 µM): 0.4602 and 0.558 and 0.5219 and 0.7569
Residual activity (Vi/V0) (human CatK; Fig. S3 panel a, inhibitor 0.340 nM, single replicates, 0.00034 µM): 0.3878 and 0.4931 and 0.523
remaining activity at 0.00034 µM (human CatK; Fig. S3 panel a, inhibitor 0.340 nM, single replicates, read-out: Residual activity (Vi/V0)): 34.5%
Residual activity (Vi/V0) (human CatK; Fig. S3 panel a, inhibitor 0.612 nM, single replicates, 0.000612 µM): 0.4226 and 0.3636 and 0.4242
remaining activity at 0.000612 µM (human CatK; Fig. S3 panel a, inhibitor 0.612 nM, single replicates, read-out: Residual activity (Vi/V0)): 40.6%
Residual activity (Vi/V0) (human CatK; Fig. S3 panel a, inhibitor 1.103 nM, single replicates, 0.001103 µM): 0.2715 and 0.287 and 0.3208
remaining activity at 0.001103 µM (human CatK; Fig. S3 panel a, inhibitor 1.103 nM, single replicates, read-out: Residual activity (Vi/V0)): 28.1%
Residual activity (Vi/V0) (human CatK; Fig. S3 panel a, inhibitor 1.985 nM, single replicates, 0.001985 µM): 0.3296 and 0.262 and 0.2126
remaining activity at 0.001985 µM (human CatK; Fig. S3 panel a, inhibitor 1.985 nM, single replicates, read-out: Residual activity (Vi/V0)): 22.7%
Residual activity (Vi/V0) (human CatK; Fig. S3 panel a, inhibitor 3.572 nM, single replicates, 0.003572 µM): 0.1196 and 0.134 and 0.13
remaining activity at 0.003572 µM (human CatK; Fig. S3 panel a, inhibitor 3.572 nM, single replicates, read-out: Residual activity (Vi/V0)): 12.2%
Residual activity (Vi/V0) (human CatK; Fig. S3 panel a, inhibitor 6.430 nM, single replicates, 0.00643 µM): 0.07914 and 0.03985 and 0.09073 and 0.08937
Residual activity (Vi/V0) (human CatK; Fig. S3 panel a, inhibitor 11.547 nM, single replicates, 0.011547 µM): 0.02749 and 0.03914 and 0.04269
remaining activity at 0.011547 µM (human CatK; Fig. S3 panel a, inhibitor 11.547 nM, single replicates, read-out: Residual activity (Vi/V0)): 3.75%
Residual activity (Vi/V0) (human CatK; Fig. S3 panel a, inhibitor 20.833 nM, single replicates, 0.020833 µM): 0.006913 and 0.01907 and 0.01563
Residual activity (Vi/V0) (human CatK; Fig. S3 panel a, inhibitor 37.500 nM, single replicates, 0.0375 µM): -0.03871 and -0.04863 and 0.01233 and 0.01242
Ki (human CatK; mean with standard deviation and 95% confidence interval, pH 5.5, 37 °C): 0.061 nM
Residual activity (Vi/V0) (human CatV; inhibitor 0.010 nM, 10 pM): 0.7492 and 0.8662 and 0.9665 and 0.9783 and 1.034 and 0.8959 and 1.049 and 1.043
Residual activity (Vi/V0) (human CatV; inhibitor 0.018 nM, 18 pM): 1.426 and 1.071 and 0.8111 and 0.946 and 1.016 and 0.7983 and 1.052 and 1.107
Residual activity (Vi/V0) (human CatV; inhibitor 0.032 nM, 32 pM): 0.6155 and 0.7103 and 0.8989 and 0.8852 and 0.9741 and 0.7786 and 1.073 and 1.106
Residual activity (Vi/V0) (human CatV; inhibitor 0.058 nM, 58 pM): 0.4678 and 0.5573 and 0.8821 and 0.907 and 0.9499 and 0.7317 and 1.135 and 1.04
Residual activity (Vi/V0) (human CatV; inhibitor 0.105 nM, 0.000105 µM): 0.3395 and 0.4697 and 0.9391 and 1.0131 and 0.8776 and 0.5515 and 1.047 and 0.9299
Residual activity (Vi/V0) (human CatV; inhibitor 0.189 nM, 0.000189 µM): 0.2218 and 0.3638 and 0.7852 and 0.7629 and 0.7844 and 0.3361 and 0.9055 and 0.7253
Residual activity (Vi/V0) (human CatV; inhibitor 0.340 nM, 0.00034 µM): 0.127 and 0.1861 and 0.5926 and 0.6199 and 0.6546 and 0.1805 and 0.6841 and 0.4951
Residual activity (Vi/V0) (human CatV; inhibitor 0.612 nM, 0.000612 µM): 0.08315 and 0.0899 and 0.6171 and 0.6648 and 0.6032 and 0.1116 and 0.3127 and 0.292
Residual activity (Vi/V0) (human CatV; inhibitor 1.103 nM, 0.001103 µM): 0.07258 and 0.065 and 0.4015 and 0.4879 and 0.4441 and 0.08067 and 0.1763 and 0.1568
Residual activity (Vi/V0) (human CatV; inhibitor 1.985 nM, 0.001985 µM): 0.02995 and 0.03856 and 0.2299 and 0.2925 and 0.2801 and 0.03165 and 0.06168 and 0.07508
Residual activity (Vi/V0) (human CatV; inhibitor 3.572 nM, 0.003572 µM): 0.007933 and 0.009299 and 0.124 and 0.1265 and 0.09125 and 0.0154 and 0.02738 and 0.02841
Residual activity (Vi/V0) (human CatV; inhibitor 6.430 nM, 0.00643 µM): 0.0062 and 0.004492 and 0.03048 and 0.04147 and 0.02591 and 0.007404 and 0.008251 and 0.01699
Residual activity (Vi/V0) (human CatV; inhibitor 11.547 nM, 0.011547 µM): 0.001379 and -0.0006257 and 0.001045 and 0.01451
EC50 (SARS-CoV-2-GFP): 183 ± 65 nM
EC50 (SARS-CoV-2 [1]; Severe acute respiratory syndrome coronavirus 2, VERO-CCL81, RT-qPCR, 48 h post-infection, read-out: Viral titer EC50): 990 nM
Viral titer (% control) (SARS-CoV-2 [1]; 0.0781 μM): 100 % control
Viral titer (% control) (SARS-CoV-2 [1]; 0.1563 μM): 100 % control
Viral titer (% control) (SARS-CoV-2 [1]; 0.3125 μM): 100 % control and 79.17 % control
Viral titer (% control) (SARS-CoV-2 [1]; 0.625 μM): 59.82 % control and 89.92 % control
Viral titer (% control) (SARS-CoV-2 [1]; 1.25 μM): 52.69 % control and 49.08 % control
Viral titer (% control) (SARS-CoV-2 [1]; 2.5 μM): 27.29 % control and 39.96 % control
Viral titer (% control) (SARS-CoV-2 [1]; 5 μM): 41.34 % control and 28.43 % control
Viral titer (% control) (SARS-CoV-2 [1]; 10 μM): 15.97 % control and 10.75 % control
Viral titer (% control) (SARS-CoV-2 [2]; 0.0006 μM): 100 % control
Viral titer (% control) (SARS-CoV-2 [2]; 0.0012 μM): 100 % control
Viral titer (% control) (SARS-CoV-2 [2]; 0.0024 μM): 100 % control
Viral titer (% control) (SARS-CoV-2 [2]; 0.0049 μM): 100 % control
Viral titer (% control) (SARS-CoV-2 [2]; 0.0098 μM): 100 % control
Viral titer (% control) (SARS-CoV-2 [2]; 0.0195 μM): 100 % control
Viral titer (% control) (SARS-CoV-2 [2]; 0.0391 μM): 100 % control
Viral titer (% control) (SARS-CoV-2 [2]; 0.0781 μM): 100 % control
Viral titer (% control) (SARS-CoV-2 [2]; 0.1563 μM): 100 % control and 71.76 % control
Viral titer (% control) (SARS-CoV-2 [2]; 0.3125 μM): 77.19 % control and 100 % control
Viral titer (% control) (SARS-CoV-2 [2]; 0.625 μM): 85.89 % control and 100 % control
Viral titer (% control) (SARS-CoV-2 [2]; 1.25 μM): 75.06 % control and 100 % control
Viral titer (% control) (SARS-CoV-2 [2]; 100 μM): 0 % control
